In brackets after ≈: the same amount, converted by molar mass.
Legend:
[1] = target: T1, YycG of Bacillus subtilis 168 strain (YycG-204-611) (Bacillus subtilis, UniProt Q45614); test: YycG histidine kinase activity inhibitory test; assay type: biochemical; conditions: YycG-204-611, [γ-32P]ATP, 30° C.
T1 construct: a region containing the 204th amino acid to the 611th amino acid from the N-terminus; made in house; host or cells: Escherichia coli
Experimental: Signamycin A and signamycin B were measured for enzyme inhibitory activity against YycG of Bacillus subtilis 168 strain (B. subtilis 168).
(§1) The histidine kinase activity was measured according to the method reported in Biosci. Biotechnol. Biochem., 64, 919-923, 2000.
(§2) A DNA fragment encoding a region containing only the kinase activity domain of YycG (i.e., a region containing the 204th amino acid to the 611th amino acid from the N-terminus) was prepared through PCR from the chromosomal DNA of the Bacillus subtilis 168 strain, and was cloned into the expression vector pET21a (+). The thus-obtained plasmid pET-yycGtru was used to transform Escherichia coli cells. The culture liquid of the thus-transformed strain was treated to purify a protein expressing only the histidine kinase activity domain of YycG (YycG-204-611).
The reaction solution having the following formulation was used for measuring histidine kinase activity: 0.5 μM YycG-204-611, 50 mM Tris-HCl (pH 8.5), 100 mM KCl, 100 mM NH4Cl and 5 mM MgCl2. A 2.5 μM ATP-10 μCi [γ-^32P]ATP mixture was added to the reaction solution to initiate the reaction so that the total amount was adjusted to 10 μL. The resultant mixture was incubated at 30° C. for 10 min. After termination of the reaction, SDS-polyacrylamide gel electrophoresis was performed. […]

[2] = target: PehS of soft-rot bacteria MAFF301393 strain (PehS-209-484) (Pectobacterium carotovorum subsp. carotovorum, UniProt Q9ZIN8); test: PehS histidine kinase activity inhibitory test; assay type: biochemical, Erwinia carotovora subsp. carotovora MAFF301393; conditions: for inhibitory activity against PehS (in words): summary of Table 2
PehS of soft-rot bacteria MAFF301393 strain (PehS-209-484), sequence (Q9ZIN8 entry or part of it): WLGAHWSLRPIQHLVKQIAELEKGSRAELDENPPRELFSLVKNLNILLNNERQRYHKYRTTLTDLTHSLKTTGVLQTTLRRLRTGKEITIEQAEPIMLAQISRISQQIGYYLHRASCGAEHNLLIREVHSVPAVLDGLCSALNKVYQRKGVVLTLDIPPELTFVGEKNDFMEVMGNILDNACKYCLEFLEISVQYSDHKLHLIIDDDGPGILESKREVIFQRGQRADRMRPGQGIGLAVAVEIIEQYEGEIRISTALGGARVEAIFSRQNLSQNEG
Experimental: Signamycin A and signamycin B were measured for enzyme inhibitory activity against PehS of soft-rot bacteria MAFF301393 strain (Erwinia carotovora subsp. carotovora MAFF301393).
as §1
as §2, with “209th” for “204th”, “484th” for “611th”, “soft-rot bacteria MAFF301393” for “Bacillus subtilis 168”, “pET-pehScM2-2” for “pET-yycGtru”, “PehS (PehS-209-484).” for “YycG (YycG-204-611).”
The reaction solution having the following formulation was used for measuring histidine kinase activity: 4 μM PehS-209-484, 50 mM Tris-HCl (pH 8.5), 100 mM KCl, 100 mM NH4Cl and 5 mM MgCl2. A 2.5 μM ATP-10 μCi [γ-^32P] ATP mixture was added to the reaction solution to initiate the reaction so that the total amount was adjusted to 10 μL. The resultant mixture was incubated at 30° C. for 20 min. After termination of the reaction, SDS-polyacrylamide gel electrophoresis was performed. For measuring inhibitory activity, signamycin A or signamycin B was added to the reaction solution before the addition of the ATP mixture so as to have a predetermined concentration, followed by incubating at 30° C. for 5 min, to thereby determine the 50% inhibitory concentration (IC50) with respect to PehS of soft-rot bacteria.

[3] = target: VicK of caries bacteria (VicK-31-450) (Streptococcus mutans, UniProt Q8DT64); test: VicK histidine kinase activity inhibitory test; assay type: biochemical; conditions: VicK-31-450, [32P]ATP, 25° C.
VicK of caries bacteria (VicK-31-450), sequence (Q8DT64 entry or part of it): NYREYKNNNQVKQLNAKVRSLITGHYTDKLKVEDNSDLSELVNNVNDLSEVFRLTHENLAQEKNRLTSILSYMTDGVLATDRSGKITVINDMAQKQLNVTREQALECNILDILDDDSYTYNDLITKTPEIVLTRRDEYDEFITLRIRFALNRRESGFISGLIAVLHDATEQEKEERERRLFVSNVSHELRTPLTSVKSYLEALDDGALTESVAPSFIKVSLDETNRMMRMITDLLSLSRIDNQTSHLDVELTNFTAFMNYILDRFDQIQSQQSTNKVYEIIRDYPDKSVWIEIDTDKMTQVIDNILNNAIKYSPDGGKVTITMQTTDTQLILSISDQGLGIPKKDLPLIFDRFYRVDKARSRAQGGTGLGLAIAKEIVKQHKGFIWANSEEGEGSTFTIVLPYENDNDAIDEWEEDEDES
Experimental: Signamycin A and signamycin B were measured for enzyme inhibitory activity against VicK of caries bacteria (Streptococcus mutans).
The histidine kinase activity was measured by a modified method of the method reported in Biosci. Biotechnol. Biochem., 64, 919-923, 2000.
as §2, with “VicK” for “YycG”, “31th” for “204th”, “450th” for “611th”, “caries bacteria,” for “Bacillus subtilis 168 strain,”, “pET-SMvicK31-450” for “pET-yycGtru”, “VicK (VicK-31-450).” for “YycG (YycG-204-611).”
The reaction solution having the following formulation was used for measuring histidine kinase activity: […] VicK-31-450, 50 mM Tris-HCl (pH 7.5), 50 mM KCl and 10 mM MgCl2. Signamycin A or signamycin B (1 μL) was added to the reaction solution (7 μl), followed by incubating at 25° C. for 5 min. Subsequently, 2 μL of 12.5 µM ATP containing [^32P]ATP was added to the reaction mixture (final concentration: […]) to initiate the reaction, followed by incubating at 25° C. for 20 min. […]

[4] = test system: Staphylococcus aureus (S. aureus); test: Antimicrobial activity, summary in words for the species; assay type: cell-based; conditions: summary of Table 1
Experimental: (§3) According to the standard method of Japanese Society of Chemotherapy, signamycin A and signamycin B were measured for antimicrobial spectrum against various microorganisms including drug-resistant bacteria (methicilline resistant bacteria and vancomycin resistant bacteria) on the Muller Hinton agar medium by the multiple dilution method.

[5] = test system: Bacillus subtilis NRRL B-558; test: Antimicrobial activity (MIC), agar multiple dilution method; assay type: cell-based; conditions: NRRLB558, Muller Hinton agar, 37° C., 18 hrs.
Experimental: as §3

S. aureus Smith = test: as above; assay type: cell-based; conditions: Staphylococcus aureus, Muller Hinton agar, 37° C., 18 hrs.
Experimental: as §3

[6] = test system: Staphylococcus aureus FDA 209P; test: as above; assay type: cell-based; conditions: FDA209P, Muller Hinton agar, 37° C., 18 hrs.
Experimental: as §3

[7] = test system: S. aureus TY-04282 (MRSA); test: as above; assay type: cell-based; conditions: Staphylococcus aureus, 18 h
Experimental: as §3

[8] = test system: S. aureus MRSA No. 5 (MRSA); test: as above; assay type: cell-based; conditions: Staphylococcus aureus, 18 h
Experimental: as §3

[9] = test system: Enterococcus faecalis JCM 5803; test: as above; assay type: cell-based; conditions: JCM5803, Muller Hinton agar, 37° C., 18 hrs.
Experimental: as §3

[10] = test system: Micrococcus luteus FDA 16; test: as above; assay type: cell-based; conditions: FDA16, Muller Hinton agar, 37° C., 18 hrs.
Experimental: as §3

[11] = test system: E. faecalis NCTC 12203 (VRE, vanA); test: as above; assay type: cell-based; conditions: Enterococcus faecalis, 18 h
Experimental: as §3

B. subtilis PCI 219 = test: as above; assay type: cell-based; conditions: Bacillus subtilis, PCI219, Muller Hinton agar, 37° C., 18 hrs.
Experimental: as §3

E. faecium JCM 5804 = test: as above; assay type: cell-based; conditions: Enterococcus faecium, JCM5804, Muller Hinton agar, 37° C., 18 hrs.
Experimental: as §3

[12] = test system: Mycobacterium smegmatis ATCC607; test: as above; assay type: cell-based; conditions: Mycolicibacterium smegmatis, Muller Hinton agar, 37° C. 42 hrs.
Experimental: as §3

S. aureus MS16526 (MRSA) = test: as above; assay type: cell-based; conditions: Staphylococcus aureus, 18 h
Experimental: as §3

[13] = test system: E. faecalis NCTC 12201 (VRE, vanA); test: as above; assay type: cell-based; conditions: Enterococcus faecalis, 18 h
Experimental: as §3

S. aureus MS9610 (MDR) = test: as above; assay type: cell-based; conditions: Staphylococcus aureus, 18 h
Experimental: as §3

[14] = test system: Corynebacterium bovis 1810; test: as above; assay type: cell-based; conditions: Muller Hinton agar, 37° C., 18 hrs.
Experimental: as §3

Escherichia coli NIHJ = test: as above; assay type: cell-based; conditions: Muller Hinton agar, 37° C., 18 hrs.
Experimental: as §3

B. cereus ATCC 10702 = test: as above; assay type: cell-based; conditions: Bacillus cereus, ATCC10702, Muller Hinton agar, 37° C., 18 hrs.
Experimental: as §3

[15] = test system: Pseudomonasu aeruginosa A3; test: as above; assay type: cell-based; conditions: 18 h
Experimental: as §3

[16] = test system: E. faecium NTCTC 12204 (VRE, vanA); test: as above; assay type: cell-based; conditions: Enterococcus faecium, 18 h
Experimental: as §3

[17] = test system: S. aureus MRSA No. 17 (MRSA); test: as above; assay type: cell-based; conditions: Staphylococcus aureus, 18 h
Experimental: as §3

[18] = test system: E. faecium NCTC 12202 (VRE, vanA); test: as above; assay type: cell-based; conditions: Enterococcus faecium, 18 h
Experimental: as §3

M. luteus IFO 3333 = test: as above; assay type: cell-based; conditions: Micrococcus luteus, IFO3333, Muller Hinton agar, 37° C., 18 hrs.
Experimental: as §3

M. luteus PCI 1001 = test: as above; assay type: cell-based; conditions: Micrococcus luteus, PCI1001, Muller Hinton agar, 37° C., 18 hrs.
Experimental: as §3

[19] = test system: Enterococcus (E. faecalis and E. faecium); test: Antimicrobial activity, summary in words for the genus; assay type: cell-based; conditions: summary of Table 1
Experimental: as §3

T1 sequence (Q45614 204-611): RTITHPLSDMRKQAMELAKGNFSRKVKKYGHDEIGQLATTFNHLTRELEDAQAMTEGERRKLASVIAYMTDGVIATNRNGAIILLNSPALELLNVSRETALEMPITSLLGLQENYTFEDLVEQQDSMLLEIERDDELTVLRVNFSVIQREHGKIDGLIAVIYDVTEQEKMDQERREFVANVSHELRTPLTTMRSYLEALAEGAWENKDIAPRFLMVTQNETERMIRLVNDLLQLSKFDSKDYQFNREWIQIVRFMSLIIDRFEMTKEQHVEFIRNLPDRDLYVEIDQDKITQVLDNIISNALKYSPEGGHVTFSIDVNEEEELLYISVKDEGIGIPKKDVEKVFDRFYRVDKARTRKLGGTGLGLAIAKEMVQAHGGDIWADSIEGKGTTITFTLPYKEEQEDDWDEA

SMILES	IC50 [1] [µM]	IC50 [2] [µM]	inhibitory activity against PehS (in words) [2]	IC50 [3] [µM]	antimicrobial activity against Staphylococcus aureus (in words) [4]	MIC [5] [µg/mL]	MIC (S. aureus Smith) [µg/mL]	MIC [6] [µg/mL]	MIC [7] [µg/mL]	MIC [8] [µg/mL]	MIC [9] [µg/mL]	MIC [10] [µg/mL]	MIC [11] [µg/mL]	MIC (B. subtilis PCI 219) [µg/mL]	MIC (E. faecium JCM 5804) [µg/mL]	MIC [12] [µg/mL]	MIC (S. aureus MS16526 (MRSA)) [µg/mL]	MIC [13] [µg/mL]	MIC (S. aureus MS9610 (MDR)) [µg/mL]	MIC [14] [µg/mL]	further results
CCC1C(C)=CC2CC(C)C(O)C(CC)C2C1/C(O)=C1/C(=O)NC(C)C1=O (stereo not drawn) [Signamycin A, signamycin A]	138	33.6	strong inhibitory activity	239	high antimicrobial activity	4 (≈ 10.7 µM)	8 (≈ 21.3 µM)	4 (≈ 10.7 µM)	8 (≈ 21.3 µM)	8 (≈ 21.3 µM)	16 (≈ 42.6 µM)	8 (≈ 21.3 µM)	8 (≈ 21.3 µM)	4 (≈ 10.7 µM)	8 (≈ 21.3 µM)	32 (≈ 85.2 µM)	8 (≈ 21.3 µM)	16 (≈ 42.6 µM)	8 (≈ 21.3 µM)	8 (≈ 21.3 µM)	MIC (Escherichia coli NIHJ): 32 µg/mL (≈ 85.2 µM); MIC (B. cereus ATCC 10702): 4 µg/mL (≈ 10.7 µM); MIC [15]: > 100 µg/mL; MIC [16]: 8 µg/mL (≈ 21.3 µM); MIC [17]: 8 µg/mL (≈ 21.3 µM); MIC [18]: 16 µg/mL (≈ 42.6 µM); MIC (M. luteus IFO 3333): 8 µg/mL (≈ 21.3 µM); MIC (M. luteus PCI 1001): 8 µg/mL (≈ 21.3 µM)
CCCC1C(C)=CC2CC(C)C(O)C(CC)C2C1/C(O)=C1/C(=O)NC(C)C1=O (stereo not drawn) [Signamycin B, signamycin B]	43	15.7	strong inhibitory activity	62.2	high antimicrobial activity	4 (≈ 10.3 µM)	4 (≈ 10.3 µM)	4 (≈ 10.3 µM)	4 (≈ 10.3 µM)	4 (≈ 10.3 µM)	8 (≈ 20.5 µM)	4 (≈ 10.3 µM)	8 (≈ 20.5 µM)	4 (≈ 10.3 µM)	8 (≈ 20.5 µM)	64 (≈ 164 µM)	4 (≈ 10.3 µM)	8 (≈ 20.5 µM)	4 (≈ 10.3 µM)	8 (≈ 20.5 µM)	antimicrobial activity against Enterococcus (in words) [19]: high antimicrobial activity; MIC (Escherichia coli NIHJ): 64 µg/mL (≈ 164 µM); MIC (B. cereus ATCC 10702): 2 µg/mL (≈ 5.13 µM); MIC [15]: > 100 µg/mL; MIC [16]: 8 µg/mL (≈ 20.5 µM); MIC [17]: 4 µg/mL (≈ 10.3 µM); MIC [18]: 8 µg/mL (≈ 20.5 µM); MIC (M. luteus IFO 3333): 4 µg/mL (≈ 10.3 µM); MIC (M. luteus PCI 1001): 4 µg/mL (≈ 10.3 µM)

Source: patent US8058455B2, “Compound signamycin, method for production thereof, and use thereof” (priority 2008, dated 2011)
